Structures can show the parent of a compound that is named as a salt.
Assays:
[1] = Moisture sorption experiments; assay type: physicochemical; conditions: for hygroscopicity (moisture sorption analysis): 0-90% RH; for XRPD pattern of material following the moisture sorption experiment: after sorption/desorption and drying
Experimental: Moisture sorption experiments are carried out on about 10 milligrams (mg) of sample in a Pyrex bulb by first equilibrating the sample at 25° C./40% relative humidity (RH) until an equilibrium weight is reached. The sample is then subjected to an isothermal (25° C.) adsorption scan from 40 to 90% RH in steps of 10% RH. The sample is allowed to equilibrate to either an asymptotic weight or a maximum of four hours for each relative humidity. A desorption scan from 90 to 0% RH (at 25° C.) is then run in steps of −10% again allowing a maximum of four hours for equilibration or an asymptotic weight. Following desorption, an adsorption scan is performed from 0% RH to the initial 40% RH. The sample is then dried for one hour at 80° C. to obtain the dry weight.

[2] = background statement; cited from earlier work
[3] = Stability of the salt in seven day toluene slurry (XRPD); assay type: physicochemical; conditions: ambient temperature, seven days
Experimental: Stability of the salt is evaluated using a seven day toluene slurry. Each salt (about 10-20 mg) is slurried in 250 microliters of toluene at ambient temperature for seven days in a 4 ml vial. After seven days, each sample is filtered and dried overnight at ambient temperature under vacuum. The samples are then analyzed by XRPD.

[4] = Analysis of residual solids from water slurry (XRPD, 1H-NMR) for form conversion; assay type: physicochemical; conditions: water slurry overnight, ambient temperature

Molecule | hygroscopicity (moisture sorption analysis) ([1]; 25° C.) | water adsorbed at 90% RH ([1]; 25° C.) | XRPD pattern of material following the moisture sorption experiment [1] | hygroscopicity / stability in humid environments [2] | XRPD of material following seven day toluene slurry [3] | stability of the salt in water slurry (conclusion) [4] | water adsorbed between 10-60% RH ([1]; 25° C., 10-60% RH) | water content at which the desorption curve stabilizes ([1]; desorption, 40-5% RH)
CCC1(c2ccccc2)C(=O)NC(=O)NC1=O [Phenobarbital free form, 5-ethyl-5-phenyl-2,4,6(1H,3H,5H)-pyrimidinetrione, reference compound] | nonhygroscopic | 0.1 wt % | consistent with the initial phenobarbital starting material | – | – | – | – | –
CCC1(c2ccccc2)C(=O)NC(=O)NC1=O [Phenobarbital sodium] | – | – | – | hygroscopic and degrades when exposed to humid environments | – | – | – | –
CCC1(c2ccccc2)C(=O)[N-]C(=O)NC1=O.C[N+](C)(C)CCO [phenobarbital choline salt, phenobarbital choline] | hygroscopic | 23 wt % | consistent with the initial material | – | consistent with the initial material | remained stable | – | –
CCC1(c2ccccc2)C(=O)NC(=O)NC1=O [phenobarbital potassium salt, phenobarbital potassium] | – | – | – | – | – | potential dissociation | – | –
CCC1(c2ccccc2)C(=O)NC(=O)NC1=O [phenobarbital sodium salt, phenobarbital sodium] | hygroscopic | approximately 34 wt % | shows differences in comparison to the diffraction pattern of the initial material | – | amorphous | – | approximately 2 wt % | approximately 12 wt %
phenobarbital benzathine | nonhygroscopic | 1.0 wt % | consistent with the initial material | – | – | remained stable | – | –
phenobarbital betaine [phenobarbital betaine salt] | hygroscopic | 28.1 wt % | consistent with the initial material | – | consistent with the initial material | salt dissociation | – | –

From patent publication US20100035904A1, “PHE[…]; METHODS OF MAKING; AND METHODS OF USE THEREOF” (priority 2008, published 2010)
